Reference: ChEMBL document CHEMBL1201862, “PubChem BioAssay data set” (2004)
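Where inhibition never reached the appropriate level, the endpoint shown equals the highest concentration tested. Otherwise, values were interpolated linearly from a five-concentration, 48-hour dose response in 96-well plates. Abbreviation: GI50, concentration required for 50% inhibition of growth.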 The source made the active and inactive calls. Rule as the data show it: active = GI50 up to about 1.1 µM and inactive = higher.

How the values were obtained:
Assay in all cases: NCI tumour cell line growth inhibition, 48 h
[1] = system: RXF 393
[2] = system: A498
[3] = system: UACC-257
[4] = system: OVCAR-5
[5] = system: HCT-116
[6] = system: HCT-15
[7] = system: CCRF-CEM
[8] = system: OVCAR-3
[9] = system: LOX IMVI
[10] = system: SNB-75
[11] = system: HT-29
[12] = system: PC-3
[13] = system: ACHN
[14] = system: EKVX
[15] = system: NCI-H522
[16] = system: HL-60
[17] = system: IGROV-1
[18] = system: KM12
[19] = system: SK-MEL-2
[20] = system: RPMI-8226

CSc1c(C#N)c(N)n2c1C(=O)N(c1ccccc1)C2=S
GI50 [1]: > 100 µM (inactive)
GI50 [2]: 23 µM (inactive)
GI50 [3]: > 100 µM (inactive)
GI50 [4]: > 100 µM (inactive)
GI50 [5]: 38.3 µM (inactive)
GI50 [6]: > 100 µM
GI50 [7]: 68.2 µM (inactive)
GI50 [8]: > 100 µM (inactive)
GI50 [9]: 72.1 µM (inactive)
GI50 [10]: 53.3 µM (inactive)
GI50 [11]: 90.2 µM (inactive)
GI50 [12]: 61.7 µM (inactive)
GI50 [13]: 48.2 µM (inactive)
GI50 [14]: 8.2 µM (inactive)
GI50 [15]: 21.2 µM (inactive)
GI50 [16]: > 100 µM (inactive)
GI50 [17]: 41.7 µM (inactive)
GI50 [18]: 51.5 µM (inactive)

O=S1(=O)c2ccccc2N(c2ccccc2)c2nnnn21
GI50 [1]: 19.9 µM (inactive)
GI50 [2]: 23.6 µM (inactive)
GI50 [3]: 42.3 µM (inactive)
GI50 [4]: 33.3 µM (inactive)
GI50 [5]: 26.4 µM (inactive)
GI50 [6]: 12.6 µM
GI50 [7]: 3.86 µM (inactive)
GI50 [8]: 18.5 µM (inactive)
GI50 [9]: 16.7 µM (inactive)
GI50 [11]: 20.6 µM (inactive)
GI50 [12]: 44.3 µM (inactive)
GI50 [13]: 29.4 µM (inactive)
GI50 [19]: 40.4 µM (inactive)
GI50 [14]: 33 µM (inactive)
GI50 [15]: 17.6 µM (inactive)
GI50 [16]: 11.4 µM (inactive)
GI50 [17]: 32.3 µM (inactive)
GI50 [18]: 29.4 µM (inactive)

CC(=O)Nn1cnc(C(=N)C#N)c1N
GI50 [2]: > 100 µM (inactive)
GI50 [3]: > 100 µM (inactive)
GI50 [4]: > 100 µM (inactive)
GI50 [5]: > 100 µM (inactive)
GI50 [6]: > 100 µM
GI50 [7]: > 100 µM (inactive)
GI50 [8]: > 100 µM (inactive)
GI50 [9]: > 100 µM (inactive)
GI50 [10]: > 100 µM (inactive)
GI50 [11]: > 100 µM (inactive)
GI50 [20]: > 100 µM (inactive)
GI50 [12]: > 100 µM (inactive)
GI50 [13]: > 100 µM (inactive)
GI50 [19]: > 100 µM (inactive)
GI50 [14]: > 100 µM (inactive)
GI50 [15]: > 100 µM (inactive)
GI50 [16]: > 100 µM (inactive)
GI50 [17]: > 100 µM (inactive)
GI50 [18]: > 100 µM (inactive)

O=C(CC(Cl)(Cl)C(Cl)(Cl)Cl)c1ccccc1
GI50 [1]: 1.96 µM (inactive)
GI50 [2]: 18.4 µM (inactive)
GI50 [3]: 1.78 µM (inactive)
GI50 [4]: 11.2 µM (inactive)
GI50 [5]: 2.1 µM (inactive)
GI50 [6]: 2.17 µM
GI50 [8]: 1.85 µM (inactive)
GI50 [9]: 1.83 µM (inactive)
GI50 [10]: 15.3 µM (inactive)
GI50 [11]: 2.06 µM (inactive)
GI50 [20]: 3.45 µM (inactive)
GI50 [12]: 14.4 µM (inactive)
GI50 [13]: 2.27 µM (inactive)
GI50 [19]: 10.1 µM (inactive)
GI50 [15]: 2.65 µM (inactive)
GI50 [16]: 8.99 µM (inactive)
GI50 [17]: 4.84 µM (inactive)
GI50 [18]: 4.18 µM (inactive)
